From article PMC3646032 (PLoS ONE, 2013)
Several values for one entry are separate records, joined by “and”; a condition that tells them apart may be missing. Identical values can stand only once.

Assays:
MtSK [1] = molecular target: T1, MtSK (Mycobacterium tuberculosis, UniProt P9WPY3); assay: biochemical; format: binding; conditions: 298.15 K, Hepes, pH 7.6
[2] = molecular target: EcSK (aroL-encoded SK from Erwinia chrysanthemi); parameters: method as in PMID 11369852; conditions: cited from earlier work
[3] = molecular target: M. tuberculosis Shikimate Kinase (MtSK) (Mycobacterium tuberculosis, UniProt P9WPY3); format: biochemical
M. tuberculosis Shikimate Kinase (MtSK), sequence (P9WPY3 2-176): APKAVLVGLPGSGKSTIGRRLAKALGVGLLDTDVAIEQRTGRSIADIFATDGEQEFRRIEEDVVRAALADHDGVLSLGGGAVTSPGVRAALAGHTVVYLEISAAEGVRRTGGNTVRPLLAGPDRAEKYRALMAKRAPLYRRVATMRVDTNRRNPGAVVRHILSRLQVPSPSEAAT

MtSK [4] = molecular target: T1, MtSK; conditions: cited from earlier work
[5] = test system: EcSK (SK from Erwinia chrysanthemi); parameters: method as in PMID 11369852; conditions: cited from earlier work
[6] = test system: E. coli SKII (aroL-encoded); conditions: cited from earlier work
[7] = 1-COOH, in solution; cited from earlier work
[8] = test system: E. coli SKI (aroK-encoded); conditions: cited from earlier work
MtSK [9] = molecular target: T1, MtSK; assay: Equilibrium fluorescence spectroscopy, intrinsic tyrosine fluorescence; format: binding; conditions: 25°C, pH 7.6
Description: MtSK intrinsic protein fluorescence measurements were carried out to both determine the order of substrate/product addition/dissociation on/from the catalytic site and distinguish the enzyme kinetic mechanism. As MtSK has no tryptophan residues, changes in protein tyrosine fluorescence (the polypeptide chain of MtSK has 3 Tyr residues) upon ligand binding were monitored. Fluorescence measurements were carried out in a RF-5301 PC Spectrofluorophotometer (Shimadzu) at 25°C. Excitation wavelength was 280 nm and emission spectra were collected from 300 to 500 nm. The maximum values of fluorescence intensity at 315 nm values were plotted as a function of increasing ligand concentration. Excitation and emission slits were 5 nm. As protein tyrosine typically has a low sensitivity (low molar absorption coefficient and low fluorescence quantum yield), MtSK concentration for binding experiments was 10 µM. […]
Equilibrium fluorescence spectroscopy data were fitted to Eq. 4, in which F is the observed fluorescence, F 0 is the initial fluorescence, F ∞ is the maximum change in fluorescence at saturating ligand (L) concentration, and K D represents the equilibrium dissociation constant for protein:ligand binary complex formation.

T1 sequence (P9WPY3 2-176): as above

**Q.** Which results are given for `Nc1ncnc2c1ncn2[C@@H]1O[C@H](COP(=O)(O)OP(=O)(O)OP(=O)(O)O)[C@@H](O)[C@H]1O` [ATP, adenosine 5'-triphosphate]?
**A.** -TΔS (MtSK [1]): 0.044 (±0.007) kcal mol^−1; Kd (MtSK [1]): 196 µM; ΔG (MtSK [1]): −5.1 (±0.8) kcal mol^−1; ΔH (MtSK [1]): −5.1 (±0.3) kcal mol^−1; ΔS (MtSK [1]): −0.15 (±0.02) cal mol^−1 K^−1; Kd [2]: 2600 µM; K MgATP (Michaelis constant) ([3]; pH 7.6): 112 µM and 112 (±4) µM; k cat/KMgATP ([3]; true steady-state, 25°C, pH 7.6): 5.4 (±0.7)×10^5 M^−1 s^−1; K MgATP (MtSK [4]): 83 (±4) µM; k cat/KMgATP (MtSK [4]): 530000 M⁻¹ s⁻¹; K MgATP [5]: 620 µM; k cat/KMgATP [5]: 56000 M⁻¹ s⁻¹; K MgATP [6]: 160 µM; k cat/KMgATP [6]: 200000 M⁻¹ s⁻¹

**Q.** For `c1c[nH]cn1` [imidazole], which “enzyme inhibition of MtSK activity” value ([3]; 50 mM imidazole in assay mixture) is on record?
**A.** No enzyme inhibition

**Q.** What about the “enzyme velocity of MtSK” value ([3]; assay mixture containing 50 mM imidazole (9.2 U mL^−1 in its absence)) of the same molecule?
**A.** 9.5 U mL^−1

**Q.** With `Nc1ncnc2c1ncn2[C@@H]1O[C@H](COP(=O)(O)OP(=O)(O)O)[C@@H](O)[C@H]1O` [ADP, adenosine 5′-diphosphate] as the molecule, how does the “-TΔS” value (MtSK [1]) read?
**A.** 7.9 (±0.2) kcal mol^−1

**Q.** And the Kd (MtSK [1])?
**A.** 562 µM

**Q.** What about the ΔG (MtSK [1]) of the same molecule?
**A.** −4.4 (±0.2) kcal mol^−1

**Q.** And the ΔH (MtSK [1])?
**A.** −12.4 (±0.2) kcal mol^−1

**Q.** What about the ΔS (MtSK [1]) of the same molecule?
**A.** −27 (±1) cal mol^−1 K^−1

**Q.** With `O=C(O)C1=C[C@@H](O)[C@@H](O)[C@H](O)C1` [SKH, [3R-(3α,4α,5β)]3,4,5-trihydroxy-1-cyclohexene-1-carboxylic acid] as the molecule, how does the pK a [7] read?
**A.** 4.47

**Q.** What about the “K SKH” value [8] of the same molecule?
**A.** 20×10 ^3 µM

**Q.** And the KSKH [8]?
**A.** 20 mM

**Q.** What about the “K SKH” value [5] of the same molecule?
**A.** 310 µM

**Q.** What about the “K SKH” value [6] of the same molecule?
**A.** 200 µM

**Q.** Which results are given for `O=C(O)C1=C[C@@H](OP(=O)(O)O)[C@@H](O)[C@H](O)C1` [S3P, shikimate 3-phosphate]?
**A.** change in intrinsic protein fluorescence upon binding to free MtSK (MtSK [9]): No change in protein fluorescence; binding to free enzyme detected by ITC (MtSK [1]): no binding
